Literature values, collected in patent US20100317640A1, “ANTIMICROBIAL ZINC PYRITHIONE COMPOSITION AND METHOD” (MICROBAN PRODUCTS COMPANY, priority 2009, published 2010).

Settings: neutral pH

Substance: zinc pyrithione
- solubility in water: 8 ppm
